According to patent US11034661B2, “Substituted N′-hydroxycarbamimidoyl-1,2,5-oxadiazole compounds as indoleamine 2,3-dioxygenase IDO inhibitors” (Merck Sharp & Dohme Corp., priority 2017, dated 2021):

Assays:
HIS-tagged IDO1 protein = HIS-tagged IDO1 protein (Homo sapiens (Human), UniProt P14902); assay: IDO1 Enzyme Assay; assay type: biochemical; conditions: recombinant IDO1 40 nM, tryptophan substrate, fluorescence readout
Protocol: Biological Assays IDO1 Enzyme Assay
(§1) Compounds to be tested were serially diluted in ten 3-fold steps in DMSO starting from 10 mM DMSO stocks. Compound dilutions or DMSO alone were then dispensed from the dilution plate into a Greiner black 384-well assay plate (catalog #781086) using an Echo 555 acoustic liquid handler (Labcyte).
HIS-tagged IDO1 protein was recombinantly expressed in Escherichia coli using ZYP5052 autoinduction media supplemented with 500 μM delta aminolevulinic acid for 48 hours at 16 degrees Celsius. IDO1 protein was purified using Ni^2+-affinity resin and size exclusion chromatography. Purified protein was then diluted in assay buffer (50 mM Tris pH 7.0, 1% glycerol, 20 μM methylene blue, 0.05% Tween-20, 20 mM sodium ascorbate, 100 units/mL catalase to obtain a final IDO1 concentration of 40 nM. IDO1 solution […] or buffer alone […] was dispensed to wells of the assay plate using a BioRAPTR liquid dispenser (Beckman Coulter). Assay plates containing compound and IDO1 enzyme were incubated at room temperature for 30 minutes. Afterwards, 10 μL of 400 μM tryptophan in assay buffer were added to each well of the assay plate using a BioRAPTR liquid dispenser. Plates were incubated at room temperature for 60 minutes and reactions were quenched by addition of 10 μL of 0.5 M methyl isonipecotate in dimethyl sulfoxide. Plates were sealed and incubated at 37 degrees Celsius for 4 hours or 50 degrees Celsius for 2 hours. The plates are allowed to cool and then centrifuged for 1 minute at 1000×g. The resulting fluorescence was measured in an Envision plate reader (Perkin Elmer) with a 400/25 nm excitation filter and an 510/20 nm emission filter.
Potencies were calculated by linear least squares fit to the four parameter logistic IC50 equation.

[1] = target: IDO1 in Hela cells stimulated with IFNγ (Homo sapiens (Human), UniProt P14902); assay: IDO1 Cellular Assay in Hela Cells Stimulated with IFNγ; assay type: cell-based; conditions: IFNγ 100 ng/mL, about 48 hours, fluorescence readout, read-out: IDO1 HELA Cell Assay, IC50
Chain of IDO1 in Hela cells stimulated with IFNγ (P14902 whole entry): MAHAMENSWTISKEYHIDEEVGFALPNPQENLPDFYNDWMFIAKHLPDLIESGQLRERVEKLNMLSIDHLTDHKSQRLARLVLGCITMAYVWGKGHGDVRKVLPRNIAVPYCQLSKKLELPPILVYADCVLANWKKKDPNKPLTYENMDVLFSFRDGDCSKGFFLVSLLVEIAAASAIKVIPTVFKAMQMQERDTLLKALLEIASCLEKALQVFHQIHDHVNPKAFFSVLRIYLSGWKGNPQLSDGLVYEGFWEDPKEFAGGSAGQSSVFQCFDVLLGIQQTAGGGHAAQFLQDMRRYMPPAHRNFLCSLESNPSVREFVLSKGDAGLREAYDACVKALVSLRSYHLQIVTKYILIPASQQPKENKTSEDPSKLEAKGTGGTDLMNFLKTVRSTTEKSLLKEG
Protocol: IDO1 Cellular Assay in Hela Cells Stimulated with IFNγ
Hela cells were cultured in complete Hela culture medium (90% EMEM, 10% heat-inactivated fetal bovine serum) and expanded to about 1×10^9 cells. The cells were then collected and frozen down at 10×10^6 cells/vial in 1 mL frozen medium (90% complete Hela culture medium, 10% DMSO)
as §1, with “stocks in Echo low volume plate(s).” for “stocks.”, “plate(s)” for “plate”, “into” for “into a”, “#781086, 50 nL/well)” for “#781086)”, “550” for “555”
Frozen Hela cells were thawed and transferred into Hela assay medium (99% complete Hela culture medium, 1% Pen/Strep) with 20 mL medium/vial of cells. The cells were spun down at 250 g in a table top centrifuge for 5 min and suspended in same volume of Hela assay medium. The cells were then counted and adjusted to a density of 2×10^5 cells/ml in Hela assay medium. Sterile L-tryptophan were added to the cells with final concentration of 300 uM L-tryptophan. A small aliquot (2 mL/plate) of Hela cells were set aside and were not treated with IFNγ, to serve as the Max-E control. The rest of Hela cells were added with sterile IFNγ (Cat #285-IF, R & D systems) with a final concentration of 100 ng/mL.
Hela cells with and without IFNγ were dispensed to the respective wells of 384-well assay plates containing the compounds. The plates were incubated for about 48 hours at a 37° C., 5% CO2 incubator. Afterwards, 12 μL of 0.5 M methyl isonipecotate in dimethyl sulfoxide were added into each well and the plates were sealed and incubated at 37° C. without CO2 overnight. The plates were centrifuged for 1 min at 200×g. The resulting fluorescence was measured in a Spectramax plate reader (Molecular Devices) with a 400 nm excitation filter and a 510 nm emission filter.
The fluorescence intensity of each well was corrected for the background observed in wells with non-IFNγ-treated cells and was expressed as a fraction of the intensity observed in wells of IFNγ-treated cells and DMSO only. Potencies were calculated by linear least squares fit to the four parameter logistic IC50 equation.

[2] = target: IDO1 in human whole blood stimulated with LPS and IFNγ (Homo sapiens (Human), UniProt P14902); assay: IDO1 Human Whole Blood Assay; assay type: cell-based; conditions: LPS and IFNγ 100 ng/mL, 18 h, kynurenine by LC/MS/MS
Chain of IDO1 in human whole blood stimulated with LPS and IFNγ (P14902 whole entry): as above
Protocol: IDO1 Human Whole Blood Assay
Compounds to be tested were serially diluted in ten 3-fold steps in DMSO starting from 10 mM. 3 μL of compound dilutions or DMSO alone were then dispensed from the dilution plate into a polypropylene 96-well assay plate containing 97 μL of RPMI using an Echo 555 acoustic liquid handler (Labcyte). LPS and IFNγ was prepared in RPMI to a 10× of final conc. (1000 ng/mL), final concentration is 100 ng/mL.
Human whole blood was drawn in sodium heparin coated tubes from healthy internal donors. Two hundred forty μL of blood was transferred to each of the wells of a v-bottom 96 well plate. Thirty μL of compound was transferred from intermediate dilution plate, and incubated for 15 min. Thirty μL from stimulants was then transferred to blood and mixed thoroughly. Plate was covered with breathable membrane and incubated at 37° C. for overnight (18 h).
On day 2 isotope labeled standard of kynurenine and tryptophan was made in water at 10× concentration and 30 μL was added to the blood at 3 μM final concentration. The assay plates were centrifuged at 300×G for 10 min with no brake to separate plasma from red blood cells. Sixty μL of plasma samples was removed without disturbing red blood cells. Plasma was diluted with RPMI in 1:1 ratio and proteins were precipitated out with two volume of Acetonitrile. The plates was centrifuged at 4000×G for 60 min. Twenty μL of supernatant was carefully transferred to a 384 well plate contain 40 μL of 0.1% formic acid in water and analyzed by LC/MS/MS.
LC/MS/MS analyses were performed using Thermo Fisher's LX4-TSQ Quantum Ultra system. This system consists of four Agilent binary high-performance liquid chromatography (HPLC) pumps and a TSQ Quantum Ultra triple quadruple MS/MS instrument. For each sample, 5 μL were injected onto an Atlantis T3 column (2.1 mm×150 mm, 3 μm particle size) from Waters. The mobile phase gradient pumped at 0.8 mL/min was used to elute the analytes from the column at 25° C. The elution started at 0% B increasing linearly to 25% B at 6.5 min, holding at 25% for 1 min, re-equilibrating to 10 min. Mobile phase A consisted of 0.1% formic acid in water. Mobile phase B consisted of 0.1% of formic acid in acetonitrile. Data was acquired in positive mode using a HESI interface. The operational parameters for the TSQ Quantum Ultra instrument were a spray voltage of 4000 V, capillary temperature of 380° C., vaporizer temperature 400° C., shealth gas 60 arbitrary units, Aux gas 20 arbitrary units, tube lens 85 and collision gas 1.2 mTorr. SRM chromatograms of kynurenine (Q 1: 209.2>Q3:94.0) and internal standard (Q1: 215.3>Q3:98.2) were collected for 90 sec. The peak area was integrated by Xcalibur Quan software. The ratios between the kynurenine generated in the reaction and 2D6-Kynurenine spiked-in internal standard were used to generate percentage inhibition and IC50 values. Compounds were titrated and IC50's were calculated by 4 parameter sigmoidal curve fitting formula.

Chain of HIS-tagged IDO1 protein (P14902 whole entry): as above

Compound	IC50 (HIS-tagged IDO1 protein)	IC50 [1]	IDO1 human whole blood assay, IC50 [2]
NS(=O)(=O)NCCOc1nonc1/C(=N/O)N[C@H]1Cc2ccc(F)cc21 [Example 1, (S)—N-(4-fluorobicyclo[4.2.0]octa-1(6),2,4-trien-7-yl)-N′-hydroxy-4-(2-(sulfamoylamino)ethoxy)-1,2,5-oxadiazole-3-carboximidamide]	49.3 nM	106 nM	666.4 nM
O=C(CO)NCCOc1nonc1/C(=N/O)N[C@H]1Cc2ccc(F)cc21 [Example 5, N-{2-[(4-{N-[(7S)-4-fluorobicyclo[4.2.0]octa-1,3,5-trien-7-yl]-N′-hydroxycarbamimidoyl}-1,2,5-oxadiazol-3-yl)oxy]ethyl}-2-hydroxyacetamide]	114 nM	322 nM	714.9 nM
O=C(CO)N1CC(Oc2nonc2/C(=N/O)N[C@H]2Cc3ccc(F)cc32)C1 [Example 2, (S)—N-(4-fluorobicyclo[4.2.0]octa-1(6),2,4-trien-7-yl)-N′-hydroxy-4-((1-(2-hydroxyacetyl)azetidin-3-yl)oxy)-1,2,5-oxadiazole-3-carboximidamide]	75.7 nM	93.5 nM	232.5 nM
O=C(c1nc[nH]n1)N1CC(Oc2nonc2/C(=N/O)N[C@H]2Cc3ccc(F)cc32)C1 [Example 30, N-[(7S)-4-fluorobicyclo[4.2.0]octa-1,3,5-trien-7-yl]-N′-hydroxy-4-{[1-(1H-1,2,4-triazole-3-carbonyl)azetidin-3-yl]oxy}-1,2,5-oxadiazole-3-carboximidamide]	56 nM	65.9 nM	665.5 nM
O=C(N[C@H]1C[C@@H](Oc2nonc2/C(=N/O)N[C@H]2Cc3ccc(F)cc32)C1)C1(O)CC1 [Example 65, N-((1R,3s)-3-((4-((Z)-N-((S)-4-fluorobicyclo[4.2.0]octa-1(6),2,4-trien-7-yl)-N′-hydroxycarbamimidoyl)-1,2,5-oxadiazol-3-yl)oxy)cyclobutyl)-1-hydroxycyclopropanecarboxamide]	167 nM	280 nM	
CS(=O)(=O)CCOc1nonc1/C(=N/O)N[C@H]1Cc2ccc(F)cc21 [Example 27, N-[(7S)-4-fluorobicyclo[4.2.0]octa-1,3,5-trien-7-yl]-N′-hydroxy-4-[2-(methylsulfonyl)ethoxy]-1,2,5-oxadiazole-3-carboximidamide]	1480 nM	1330 nM	
NS(=O)(=O)NCCCOc1nonc1/C(=N/O)N[C@H]1Cc2ccc(F)cc21 [Example 64, (S,Z)-N-(4-fluorobicyclo[4.2.0]octa-1(6),2,4-trien-7-yl)-N′-hydroxy-4-(3-(sulfamoylamino)propoxy)-1,2,5-oxadiazole-3-carboximidamide]	37 nM	66 nM	
CC(C)(Oc1nonc1/C(=N/O)NC1Cc2ccc(F)cc21)C(=O)NCCO (stereo not drawn) [Example 19, 2-({4-[N-(4-fluorobicyclo[4.2.0]octa-1,3,5-trien-7-yl)-N′-hydroxycarbamimidoyl]-1,2,5-oxadiazol-3-yl}oxy)-N-(2-hydroxyethyl)-2-methylpropanamide]	7790 nM	2850 nM	
O=C(CO)N1CC[C@H]1COc1nonc1/C(=N/O)N[C@H]1Cc2ccc(F)cc21 [Example 54, N-[(7S)-4-fluorobicyclo[4.2.0]octa-1,3,5-trien-7-yl]-N′-hydroxy-4-{[(2S)-1-(hydroxyacetyl)azetidin-2-yl]methoxy}-1,2,5-oxadiazole-3-carboximidamide]	1490 nM	1340 nM	
O=C(CO)N1CC(COc2nonc2/C(=N/O)N[C@H]2Cc3ccc(F)cc32)C1 [Example 59, N-[(7S)-4-fluorobicyclo[4.2.0]octa-1,3,5-trien-7-yl]-N′-hydroxy-4-{[1-(hydroxyacetyl)azetidin-3-yl]methoxy}-1,2,5-oxadiazole-3-carboximidamide]	364 nM	298 nM	
NC(=O)N1CC(Oc2nonc2/C(=N/O)N[C@H]2Cc3ccc(F)cc32)C1 [Example 63, (S,Z)-3-((4-(N-(4-fluorobicyclo[4.2.0]octa-1(6),2,4-trien-7-yl)-N′-hydroxycarbamimidoyl)-1,2,5-oxadiazol-3-yl)oxy)azetidine-1-carboxamide]	20 nM	36 nM	
NS(=O)(=O)N1CC[C@@H](Oc2nonc2/C(=N/O)N[C@H]2Cc3ccc(F)cc32)C1 [Example 31, N-[(7S)-4-fluorobicyclo[4.2.0]octa-1,3,5-trien-7-yl]-N′-hydroxy-4-{[(3R)-1-sulfamoylpyrrolidin-3-yl]oxy}-1,2,5-oxadiazole-3-carboximidamide]	747 nM	750 nM	
O=C(CO)N1CC[C@@H](Oc2nonc2/C(=N/O)N[C@H]2Cc3ccc(F)cc32)C1 [Example 60, N-[(7S)-4-fluorobicyclo[4.2.0]octa-1,3,5-trien-7-yl]-N′-hydroxy-4-{[(3R)-1-(hydroxyacetyl)pyrrolidin-3-yl]oxy}-1,2,5-oxadiazole-3-carboximidamide]	1390 nM	1440 nM	
